This passage reports IC50 results from ChEMBL document CHEMBL5500344, “Design, synthesis and biological evaluation of matrine contains benzimidazole derivatives as dual TOPOI and PARP inhibitors for cancer therapy” (Eur J Med Chem, 2024).

One assay deals with A549. In words: Antiproliferative activity against human A549 cells assessed as inhibition of cell growth incubated for 48 hrs by MTT assay. It counts as functional, cell-based. The following applies: A549, 48 h. In general terms: Tetrazolium dyes change colour on reduction, which living cells bring about.
The subject of the next assay is HepG2. In words: Antiproliferative activity against human HepG2 cells assessed as inhibition of cell growth incubated for 48 hrs by MTT assay. In kind it is functional, cell-based. To be noted: HepG2, 48 h.
A further assay deals with HGC-27. In words: Antiproliferative activity against human HGC-27 cells assessed as inhibition of cell growth incubated for 48 hrs by MTT assay. In kind it is functional, cell-based. The following applies: HGC-27, 48 h, read-out: IC50.
In the next assay the test system is L02. Description: Antiproliferative activity against human L02 cells assessed as inhibition of cell growth incubated for 48 hrs by MTT assay. In kind it is functional, cell-based. The following applies: L02, 48 h.
In a further assay the test system is HeLa. Description: Antiproliferative activity against human HeLa cells assessed as inhibition of cell growth incubated for 48 hrs by MTT assay. It counts as functional, cell-based.
For assay [1], the target named is Poly [ADP-ribose] polymerase 1 (Homo sapiens, UniProt P09874). Description: Inhibition of PARP-1 (unknown origin) incubated for 70 mins by HT universal chemiluminescent assay.
Sequence of Poly [ADP-ribose] polymerase 1 (P09874 whole entry): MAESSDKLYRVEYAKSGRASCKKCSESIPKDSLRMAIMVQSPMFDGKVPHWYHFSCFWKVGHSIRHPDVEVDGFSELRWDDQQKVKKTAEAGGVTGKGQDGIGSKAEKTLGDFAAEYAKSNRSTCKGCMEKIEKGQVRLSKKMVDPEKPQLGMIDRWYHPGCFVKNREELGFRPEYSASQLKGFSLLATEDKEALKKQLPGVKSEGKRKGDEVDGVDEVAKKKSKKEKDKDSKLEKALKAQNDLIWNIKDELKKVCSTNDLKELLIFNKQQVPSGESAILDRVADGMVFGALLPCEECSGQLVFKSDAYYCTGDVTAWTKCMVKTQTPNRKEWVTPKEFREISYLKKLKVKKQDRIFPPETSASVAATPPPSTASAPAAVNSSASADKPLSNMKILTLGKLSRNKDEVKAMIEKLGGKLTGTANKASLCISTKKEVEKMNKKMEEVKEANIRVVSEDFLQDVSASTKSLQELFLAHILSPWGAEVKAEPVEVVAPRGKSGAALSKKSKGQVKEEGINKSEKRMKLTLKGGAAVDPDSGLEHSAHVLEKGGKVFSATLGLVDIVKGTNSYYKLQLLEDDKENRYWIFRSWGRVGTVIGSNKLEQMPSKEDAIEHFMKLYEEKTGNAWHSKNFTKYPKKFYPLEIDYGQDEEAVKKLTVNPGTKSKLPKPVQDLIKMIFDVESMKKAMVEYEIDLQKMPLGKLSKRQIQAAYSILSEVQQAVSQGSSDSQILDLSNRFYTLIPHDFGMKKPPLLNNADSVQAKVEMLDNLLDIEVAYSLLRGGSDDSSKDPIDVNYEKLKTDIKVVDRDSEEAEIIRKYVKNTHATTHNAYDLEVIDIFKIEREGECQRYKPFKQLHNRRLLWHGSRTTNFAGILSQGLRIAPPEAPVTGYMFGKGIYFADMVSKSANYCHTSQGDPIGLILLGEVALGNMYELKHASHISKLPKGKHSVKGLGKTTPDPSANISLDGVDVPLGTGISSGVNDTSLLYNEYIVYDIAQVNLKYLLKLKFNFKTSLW

In general, IC50 refers to the concentration needed to halve the response being measured.

Turning to `O=S(=O)(c1ccc(C(F)(F)F)cc1)N1C[C@@H]2CCCN3CCC[C@@H]([C@H]23)[C@H]1CCCc1nc2cc(Cl)ccc2n1S(=O)(=O)c1ccc(C(F)(F)F)cc1`, the IC50 was 57.3 µM in the assay with A549; 9.17 µM with HepG2; 8.65 µM in the assay on HGC-27; greater than 64 µM in the assay on L02; 62.4 µM in the assay with HeLa; 14.4 µM in assay [1].
On to `O=C(OCC1c2ccccc2-c2ccccc21)N1C[C@@H]2CCCN3CCC[C@@H]([C@H]23)[C@H]1CCCc1nc2ccccc2n1C(=O)OCC1c2ccccc2-c2ccccc21`, for which the IC50 stood at 24.1 µM in the assay on A549, 16.5 µM in the assay on HepG2, 13.8 µM in the assay on HGC-27 and 16.6 µM with HeLa.
In the same order, the values of `O=S(=O)(c1ccc(Cl)cc1)N1C[C@@H]2CCCN3CCC[C@@H]([C@H]23)[C@H]1CCCc1nc2ccc(Cl)cc2n1S(=O)(=O)c1ccc(Cl)cc1` are 46.1 µM, 11.2 µM, 12.1 µM and 53.2 µM.
In the same order, the values of `CC(C)(C)c1ccc(S(=O)(=O)N2C[C@@H]3CCCN4CCC[C@@H]([C@H]34)[C@H]2CCCc2nc3cc(Cl)ccc3n2S(=O)(=O)c2ccc(C(C)(C)C)cc2)cc1` are 77.5 µM, greater than 80 µM, 58.9 µM and 66.3 µM.
Turning to `Cn1c(CCC[C@@H]2[C@H]3CCCN4CCC[C@@H](CN2C(=O)OCC2c5ccccc5-c5ccccc52)[C@@H]34)nc2ccc([N+](=O)[O-])cc21`, the IC50 in the assay on A549 worked out at 31 µM; with HepG2 it was 13.8 µM; with HGC-27, 11.1 µM; with HeLa, 23.8 µM.
In the same order, the values of `CC(C)(C)c1ccc(S(=O)(=O)N2C[C@@H]3CCCN4CCC[C@@H]([C@H]34)[C@H]2CCCc2nc3ccc(Cl)cc3n2S(=O)(=O)c2ccc(C(C)(C)C)cc2)cc1` are 67.2 µM, 70.7 µM, 60.3 µM and 78.5 µM.
With `Cc1ccc(S(=O)(=O)N2C[C@@H]3CCCN4CCC[C@@H]([C@H]34)[C@H]2CCCc2nc3ccccc3n2S(=O)(=O)c2ccc(C)cc2)cc1`, the IC50 in the assay on A549 came to 69.9 µM; in the assay on HepG2, 13.5 µM; with HGC-27 it was 18.2 µM; in the assay with HeLa, 49.6 µM.
Consider `C[C@]1(c2nc3c(C(N)=O)cccc3[nH]2)CCCN1` [VELIPARIB], for which the IC50 is 15.2 µM with A549, 13.7 µM in the assay on HepG2, 16 µM with HGC-27 and 18.1 µM in the assay with HeLa.
In the same order, the values of `CC(C)(C)c1ccc(S(=O)(=O)N2C[C@@H]3CCCN4CCC[C@@H]([C@H]34)[C@H]2CCCc2nc3ccccc3n2S(=O)(=O)c2ccc(C(C)(C)C)cc2)cc1` are 59.7 µM, 11.6 µM, 22.2 µM and 55.6 µM.
Turning to `O=S(=O)(c1ccc(Br)cc1)N1C[C@@H]2CCCN3CCC[C@@H]([C@H]23)[C@H]1CCCc1nc2ccc(Cl)cc2n1S(=O)(=O)c1ccc(Br)cc1`, the IC50 in the assay on A549 worked out at 68.2 µM; in the assay with HepG2 it was 32.2 µM; in the assay on HGC-27, 29.3 µM; with HeLa, 71.2 µM.
Taken in the same sequence, the figures for `O=C(CCC[C@@H]1[C@H]2CCCN3CCC[C@@H](CN1C(=O)OCC1c4ccccc4-c4ccccc41)[C@@H]23)NCCCc1nc2ccc(C(F)(F)F)cc2[nH]1` were 18.7 µM, 22.5 µM, 19.7 µM and 13.2 µM.
In the case of `O=S(=O)(c1ccc(Br)cc1)N1C[C@@H]2CCCN3CCC[C@@H]([C@H]23)[C@H]1CCCc1nc2cc(Cl)ccc2n1S(=O)(=O)c1ccc(Br)cc1`, the IC50 in the assay with A549 was 79.9 µM; in the assay with HepG2, greater than 80 µM; in the assay on HGC-27 it was 77.2 µM; with HeLa, 59.6 µM.
In the same order, the values of `O=S(=O)(c1ccc(C(F)(F)F)cc1)N1C[C@@H]2CCCN3CCC[C@@H]([C@H]23)[C@H]1CCCc1nc2ccc(Cl)cc2n1S(=O)(=O)c1ccc(C(F)(F)F)cc1` are greater than 80 µM, greater than 80 µM, 70.3 µM and greater than 80 µM.
`O=C(OCC1c2ccccc2-c2ccccc21)N1C[C@@H]2CCCN3CCC[C@@H]([C@H]23)[C@H]1CCCc1nc2ccc(C(F)(F)F)cc2n1C(=O)OCC1c2ccccc2-c2ccccc21`: the concentration for half-maximal inhibition (IC50) worked out at 19 µM in the assay on A549, 28.6 µM in the assay on HepG2, 27.8 µM in the assay on HGC-27 and 21.2 µM in the assay with HeLa.
Taken in the same sequence, the figures for `O=C(OCC1c2ccccc2-c2ccccc21)N1C[C@@H]2CCCN3CCC[C@@H]([C@H]23)[C@H]1CCCc1nc2ccc(C(F)(F)F)cc2[nH]1` were 33.6 µM, 27.7 µM, 25.6 µM and 25.5 µM.
Turning to `O=S(=O)(c1cccc2ccccc12)N1C[C@@H]2CCCN3CCC[C@@H]([C@H]23)[C@H]1CCCc1nc2cc(F)ccc2n1S(=O)(=O)c1cccc2ccccc12`, the concentration for half-maximal inhibition (IC50) with A549 was 16.9 µM; in the assay with HepG2 it was 6.85 µM; with HGC-27, 7.56 µM; in the assay on L02, greater than 64 µM; in the assay with HeLa it was 10.9 µM; in assay [1] it was 13.8 µM.
For the compound `O=C(OCC1c2ccccc2-c2ccccc21)N1C[C@@H]2CCCN3CCC[C@@H]([C@H]23)[C@H]1CCCc1nc2ccc(Cl)cc2[nH]1`, the IC50 with A549 was found to be 36.3 µM; in the assay with HepG2, 19.7 µM; with HGC-27 it was 15.2 µM; in the assay with HeLa it was 20.4 µM.
In the same order, the values of `O=S(=O)(c1cccc2ccccc12)N1C[C@@H]2CCCN3CCC[C@@H]([C@H]23)[C@H]1CCCc1nc2ccc(F)cc2n1S(=O)(=O)c1cccc2ccccc12` are 62.4 µM, 19.8 µM, 12.4 µM and 40 µM.
In the same order, the values of `O=S(=O)(c1ccc(Cl)cc1)N1C[C@@H]2CCCN3CCC[C@@H]([C@H]23)[C@H]1CCCc1nc2cc(Cl)ccc2n1S(=O)(=O)c1ccc(Cl)cc1` are 68.3 µM, 21.6 µM, 18.4 µM and greater than 80 µM.
In the same order, the values of `O=C(OCC1c2ccccc2-c2ccccc21)N1C[C@@H]2CCCN3CCC[C@@H]([C@H]23)[C@H]1CCCc1nc2ccc(Br)cc2[nH]1` are 20.8 µM, 11.6 µM, 10.4 µM and 15.1 µM.
As to `Cc1ccc(S(=O)(=O)N2C[C@@H]3CCCN4CCC[C@@H]([C@H]34)[C@H]2CCCc2nc3ccc(Br)cc3n2S(=O)(=O)c2ccc(C)cc2)cc1`, the IC50 with A549 is 12.3 µM; with HepG2, 5.89 µM; with HGC-27, 9.38 µM; with L02, greater than 64 µM; in the assay on HeLa it was 8.56 µM; in assay [1], 4.17 µM.
For `O=C(CCC[C@@H]1[C@H]2CCCN3CCC[C@@H](CN1C(=O)OCC1c4ccccc4-c4ccccc41)[C@@H]23)NCCCc1nc2ccccc2[nH]1`, the IC50 was 30.7 µM in the assay on A549, 37.4 µM in the assay on HepG2, 24.4 µM in the assay with HGC-27 and 21.7 µM with HeLa.
In the same order, the values of `CC(C)(C)c1ccc(S(=O)(=O)N2C[C@@H]3CCCN4CCC[C@@H]([C@H]34)[C@H]2CCCc2nc3cc([N+](=O)[O-])ccc3n2S(=O)(=O)c2ccc(C(C)(C)C)cc2)cc1` are 62.8 µM, 50.2 µM, 44.2 µM and 65.6 µM.
On to `CC(C)(C)c1ccc(S(=O)(=O)N2C[C@@H]3CCCN4CCC[C@@H]([C@H]34)[C@H]2CCCc2nc3ccc([N+](=O)[O-])cc3n2S(=O)(=O)c2ccc(C(C)(C)C)cc2)cc1`, for which the IC50 was determined as 69.3 µM in the assay on A549, 52.8 µM in the assay with HepG2, 47.8 µM with HGC-27 and 70.1 µM in the assay on HeLa.
In the same order, the values of `Cn1c(CCCNC(=O)CCC[C@@H]2[C@H]3CCCN4CCC[C@@H](CN2C(=O)OCC2c5ccccc5-c5ccccc52)[C@@H]34)nc2ccc([N+](=O)[O-])cc21` are 20.6 µM, 23.8 µM, 16.8 µM and 15.5 µM.
In the same order, the values of `Cc1ccc(S(=O)(=O)N2C[C@@H]3CCCN4CCC[C@@H]([C@H]34)[C@H]2CCCc2nc3ccc([N+](=O)[O-])cc3n2S(=O)(=O)c2ccc(C)cc2)cc1` are 74.2 µM, 40 µM, 40.2 µM and 71.8 µM.
Taken in the same sequence, the figures for `Cc1ccc(S(=O)(=O)N2C[C@@H]3CCCN4CCC[C@@H]([C@H]34)[C@H]2CCCc2nc3cc([N+](=O)[O-])ccc3n2S(=O)(=O)c2ccc(C)cc2)cc1` were 53.2 µM, 52.3 µM, 47.4 µM and greater than 80 µM.
